In patent publication US12037354B2, “Cyclic pantetheine derivatives and uses thereof” (VectivBio Comet AG, priority 2018, dated 2024):

Key:
Type in all cases: cell-based, human
[1] = tested on: Monocytes differentiated to M1 macrophages; assay: M1 differentiation assay (TNFα, IL6, IL10 ELISA, FACS), Example 807
Method: Monocytes were isolated by positive isolation with CD14+ microbeads (Miltenyi, 130-050-201). Monocytes were 99% viable and were 96% purity as analyzed by FACS and CD14+(BD, 563561). 100,000 monocytes along with compounds at the dose of 10 and 50 μM were allowed to differentiate to macrophages with 10 ng/ml GMCSF (R&D, 15-GM-050/CF) in RPMI complete media (Invitrogen, 22400089) with 15% FBS (Hyclone SV30087.03) and 1% Penicillin-Streptomycin (Gibco, 15140-122). On day 2 and 4 half the media was refreshed with fresh GM-CSF and compounds at 10 and 50 μM dose. On day 6 the macrophages were matured with GMCSF, IFNγ (R&D 285-IF-100/CF) and LPS (Sigma, L6143) in the presence of 10 μM and 50 μM of compounds. After 24 h, supernatant was collected for the measurement of TNFα (DKW, 1117202) IL6 (DKW, 1110602), IL10 (DKW, 1110003) by ELISA. Macrophages were detached gently on ice with EDTA (Invitrogen, 15575-038) and analyzed by FACS (BD LSR Fortessa, 853492). Cells were stained for live/dead dye, surface and intracellular markers with fixation/permeabilization solution (BD, 554714) and ALIVE/DEAD™ Fixable Near-IR Dead Cell Stain Kit (BD, L34976), mouse anti human CD86 APC (BD, 555660), mouse anti-human CD163 PE (BD, 556018), mouse anti-human CD68 FITC (BD, 562117) or isotype controls anti-mouse IgG1 κ PE (BD, 559320) and anti-mouse IgG1 κ APC (BD, Anti mouse IgG1 κ APC (BD, 55571). Mature M1 macrophages were defined as CD86+CD68+CD163− and increase in TNFα, IL6, and decrease in IL-10.

[2] = tested on: Venular Endothelial cells (HUVEC) (3C system); assay: BioMAP 3C system, Example 825
Method: The BioMAP platform (BioMAP® Diversity PLUS Panel from Eurofins) is an in vitro phenotypic profiling technology that screened the compounds of the present disclosure (hereafter indicated as test agents) in human primary cell-based systems modelling complex tissue and disease states. The BioMAP assays were performed using the Eurofin's BioMAP Technology Platform as (see references 1 to 13 in the example 824 section) to model different diseases on primary cell-based model systems. These systems consisted of either single primary cell types or co-culture cells. Adherent cell types were cultured or co-cultured in 96 or 384-well plates until confluence followed by the addition of compounds prepared in DMSO at a final concentration of ≤0.1%. […]
Following the general procedure as described in Example 824, Venular Endothelial cells (HUVEC) (3C system) were treated with IL-1β, TNFα, IFNγ for 24 h to model Th1 driven cardiovascular and chronic inflammation diseases in the presence or absence of the compounds. Biomarker read out were; Tissue Factor, ICAM-1, E-selectin, uPAR (CD87), IL-8, […], HLA-DR, proliferation and SRB (Sulfo-rhodamine i.e. staining for protein content).

[3] = tested on: Keratinocytes co-cultured with dermal fibroblast (KF3CT system); assay: BioMAP KF3CT system, Example 834
Method: (§1) The BioMAP platform (BioMAP® Diversity PLUS Panel from Eurofins) is an in vitro phenotypic profiling technology that screened the compounds of the present disclosure (hereafter indicated as test agents) in human primary cell-based systems modelling complex tissue and disease states. The BioMAP assays were performed using the Eurofin's BioMAP Technology Platform as (see references 1 to 13 in the example 824 section) to model different diseases on primary cell-based model systems. These systems consisted of either single primary cell types or co-culture cells. Adherent cell types were cultured or co-cultured in 96 or 384-well plates until confluence followed by the addition of compounds prepared in DMSO at a final concentration of ≤0.1%. In each cell-based system, primary cells from heathy donors (2-6 donors) were pooled and treated with compounds at 1 and 10 μM dose 1 h prior to stimulation and remain in culture as indicated in
(§2) Example 825, Example 826, Example 827, Example 828, Example 829, Example 830, Example 831, Example 832, Example 833, Example 834, Example 835, Example 836 and Example 837. For on the BioMAP® Diversity PLUS® Panel, please see the following references, which are incorporate herein.
Following the general procedure as described in Example 824, Keratinocytes were co-cultured with dermal fibroblast (KF3CT system) and treated with […], TNFα, IFNγ and TGFβ for 24 h in the presence or absence of the compounds to model psoriasis, dermatitis and skin biology. Biomarkers read out were; MCP-1, ICAM-1, IP-10, IL-8, MIG, IL-1α, MMP-9, PAI-1, SRB, TIMP-2, uPA.

[4] = tested on: Dermal fibroblasts (HDF3CGF system); assay: BioMAP HDF3CGF system, Example 833; details: 1 uM
Method: as §1, §2
Following the general procedure as described in Example 824, Dermal fibroblasts (HDF3CGF system) were treated with IL-1β, TNFα and IFNγ, EGF, bFGF and PDGF-BB for 24 h in the presence or absence of the compounds to model fibrosis and chronic inflammation. Biomarkers read out were; MCP-1, VCAM-1, ICAM-1, Collagen-I, Collagen-III, IP-10, I-TAC, IL-8, MIG, EGFR, M-CSF, MMP-1, PAI-1, SRB, TIMP-1, TIMP-2 and proliferation was measured for 72 h.

[5] = tested on: Venular endothelial cells co-cultured with macrophages (Mphg system); assay: BioMAP Mphg system, Example 836
Method: as §1, §2
Following the general procedure as described in Example 824, Venular endothelial cells co-cultured with macrophages (Mphg system) and treated with TLR2 ligand for 24 h in the presence or absence of the compounds to mimic cardiovascular inflammation, restenosis and chronic inflammation. Biomarkers read out were; MCP-1, MIP-1α, VCAM-1, CD40, E-selectin, CD69, IL-8, IL-1α, M-CSF, sIL-10 and SRB.

[6] = tested on: Peripheral blood mononuclear cells co-cultured with venular endothelial cells (HUVEC) (LPS system); assay: BioMAP LPS system, Example 827
Method: as §1, §2
Following the general procedure as described in Example 824, Peripheral blood mononuclear cells co-cultured with venular endothelial cells (HUVEC) (LPS system) were stimulated with LPS for 24 h in the presence or absence of compounds, to model cardiovascular disease and chronic inflammation. Biomarkers read out were; MCP-1, VCAM-1, Thrombomodulin, Tissue Factor, CD40, E-selectin, CD69, IL-8, IL-1α, M-CSF, sPGE2, SRB and TNFα.

[7] = tested on: Bronchial epithelial cells co-cultured with dermal fibroblast (BF4T system); assay: BioMAP BF4T system, Example 830; details: 10 uM
Method: as §1, §2
Following the general procedure as described in Example 824, Bronchial epithelial cells were co-cultured with dermal fibroblast (BF4T system) and were treated with TNFα and IL-4 for 24 h in the presence or absence of the compounds to model asthma, allergy, fibrosis, lung inflammation. Biomarkers read out were; MCP-1, Eotaxin-3, VCAM-1, ICAM-1, CD90, IL-8, IL-1α, keratin 8/18, MMP-1, MMP-3, MMP-9, PAI-1, SRB, tPA, uPA.

[8] = tested on: Peripheral blood mononuclear cells co-cultured with B-cells (BT system); assay: BioMAP BT system, Example 829; details: BT system; 10 uM
Method: as §1, §2
Following the general procedure as described in Example 824, Peripheral blood mononuclear cells were co-cultured with B-cells (BT system) were treated with either α-IgM and TCR ligands for 72 h in the presence or absence of the compounds to model asthma, allergy, oncology and autoimmunity. Biomarkers read out were; B-cell proliferation, PBMC cytotoxicity, secreted IgG, sIL-17A, sIL-17F, sIL-2, sIL-6 and s-TNFα.

[9] = tested on: Venular Endothelial cells (HUVEC) (4H system); assay: BioMAP 4H system, Example 826
Method: as §1, §2
Following the general procedure as described in Example 824, Venular Endothelial cells (HUVEC) (4H system) were treated with IL-4 and histamine for 24 h to model Th2 driven allergy and autoimmunity in the presence or absence of compounds. Biomarkers read out were; MCP-1, Eotaxin-3. VCAM-1, P-selectin, uPAR (CD87), SRB and VEGFRII.

[10] = tested on: Peripheral blood mononuclear cells co-cultured with venular endothelial cells (Sag system); assay: BioMAP Sag system, Example 828; details: Sag system, 1 uM
Method: as §1, §2
Following the general procedure as described in Example 824, Peripheral blood mononuclear cells were co-cultured with venular endothelial cells and treated with soluble antigen (T-cell ligands) (Sag system) in the presence or absence of compounds to model autoimmune and chronic inflammation. Biomarkers read out were; MCP-1, CD38, CD40, E-selectin, CD69, IL-8, MIG, PBMC cytotoxicity, Proliferation and SRB.

[11] = tested on: Coronary artery smooth muscle cells (CASM3C system); assay: BioMAP CASM3C system, Example 832
Method: as §1, §2
Following the general procedure as described in Example 824, Coronary artery smooth muscle cells (CASM3C system) were treated with IL-1β, TNFα and IFNγ for 24 h in the presence or absence of the compounds to model cardiovascular inflammation and restenosis. Biomarker reads out were; MCP-1, VCAM-1, Throbomodulin, Tissue factor, uPAR, IL-8, MIG, HLA-DR, IL-6, LDLR, M-CSF, PAI-1, Proliferation, SAA and SRB

Question: Which results are given for `CC1(C)OC(=O)C(CC(=O)SCCNC(=O)CCNC(=O)[C@@H]2OC(C)(C)OCC2(C)C)O1` (some centres unmarked) [Compound 851]?
Answer: % Increase in IL-10 Secretion ([1]; 10 uM): ≥30%; % decrease in Macrophage IL-6 Secretion ([1]; 10 uM): ≥30%; % decrease in Macrophage TNFα Secretion ([1]; 10 uM): ≥30%

Question: `COC(=O)CCC(=O)CC(=O)SCCNC(=O)CCNC(=O)[C@@H]1OP(=O)(O)OCC1(C)C` [Compound 6] was tested. Which “% decrease in IL-8” value ([2]; 3C system, 1 uM) did it give?
Answer: The value was at least 10%.

Question: What about the “% increase in Proliferation (HUVEC)” value ([2]; 3C system, 10 uM) of the same compound?
Answer: Its value is at least 20%.

Question: What about the “% increase in Proliferation (HUVEC)” value ([2]; concentration tested 10 uM) of the same compound?
Answer: The value was at least 20%.

Question: What about the “% decrease in IL-8” value ([2]; procedure of Example 825, concentration tested 1 uM) of the same compound?
Answer: The value was at least 10%.

Question: And the “% decrease in MCP-1” value ([3]; 10 uM (Example 927))?
Answer: The value was at least 10%.

Question: What about the “% decrease in MCP-1” value ([3]; 10 uM (Example 928)) of the same compound?
Answer: The value was at least 10%.

Question: And the “% decrease in TIMP-1” value [4]?
Answer: Its value is at least 10%.

Question: What about the “% increase in 72 Hour Proliferation” value [4] of the same compound?
Answer: Its value is at least 10%.

Question: And the “% decrease in α-SMA” value ([5]; procedure of Example 836, 1 uM)?
Answer: The value was at least 10%.

Question: And the “% increase in MMP-1” value ([5]; procedure of Example 836, 10 uM)?
Answer: Its value is at least 10%.

Question: And the “% decrease in M-CSF” value ([6]; Example 988, concentration tested 1 uM)?
Answer: The value was at least 10%.

Question: And the “% decrease in IL-8” value ([6]; LPS system, 1 uM)?
Answer: Its value is at least 10%.

Question: What about the “% decrease in M-CSF” value ([6]; LPS system, 1 uM) of the same compound?
Answer: Its value is at least 10%.

Question: And the “% decrease in Tissue Factor” value ([6]; LPS system, 1 uM)?
Answer: Its value is at least 10%.

Question: What about the “% decrease in sTNFα” value ([6]; LPS system, 1 uM) of the same compound?
Answer: Its value is at least 20%.

Question: What about the “% decrease in Tissue Factor” value ([6]; concentration tested 1 uM) of the same compound?
Answer: Its value is at least 10%.

Question: What about the “% decrease in sTNFα” value ([6]; concentration tested 1 uM) of the same compound?
Answer: The value was at least 20%.

Question: What about the “% decrease in IL-8” value ([6]; procedure of Example 827, concentration tested 1 uM) of the same compound?
Answer: Its value is at least 10%.

Question: And the “% increase in VCAM-1” value [7]?
Answer: Its value is at least 10%.

Question: What about the “% decrease in sTNFα” value [8] of the same compound?
Answer: Its value is at least 10%.

Question: And the “% decrease in MCP-1” value ([9]; 4H system, 1 uM)?
Answer: Its value is at least 10%.

Question: And the “% decrease in VEGFRII” value ([9]; 4H system, 1 uM)?
Answer: The value was at least 10%.

Question: And the “% decrease in MCP-1” value ([9]; concentration tested 1 uM)?
Answer: The value was at least 10%.

Question: And the “% decrease in VEGFRII” value ([9]; concentration tested 1 uM)?
Answer: Its value is at least 10%.

Question: And the “% increase in MCP-1” value [10]?
Answer: Its value is at least 10%.

Question: And the “% decrease in HLA-DR” value ([11]; 1 uM)?
Answer: The value was at least 10%.

Question: And the “% decrease in M-CSF” value ([11]; 1 uM)?
Answer: Its value is at least 10%.

Question: What about the “% decrease in VCAM-1” value ([11]; 1 uM) of the same compound?
Answer: The value was at least 10%.

Question: What about the “% decrease in Thrombomodulin” value ([11]; 10 uM) of the same compound?
Answer: The value was at least 20%.

Question: What does the source list for `CC(C)=CC(=O)SCCNC(=O)CCNC(=O)[C@@H]1OC(C)(C)OCC1(C)C` [Compound 850, S-2-(3-{[(R)-2,2,5,5-Tetramethyl-1,3-dioxan-4-yl]carbonylamino}propionylamino)ethyl 3-methyl-2-butenethioate]?
Answer: % decrease in Macrophage IL-6 Secretion ([1]; 10 uM): ≥30%; % decrease in Macrophage TNFα Secretion ([1]; 50 uM): ≥30%

Question: `CCOC(=O)CCC(=O)SCCNC(=O)CCNC(=O)[C@@H]1OP(=O)(N[C@@H](C)C(=O)OCC)OCC1(C)C` (some centres unmarked) [Compound 206] was tested. Which “% increase in sIL-6” value [8] did it give?
Answer: The value was at least 20%.
